According to US20230069963A1, “PYRAZOLO[1,5-A]PYRIMIDINE MACROCYCLIC COMPOUND” (priority 2018, published 2023):
pEC50: −log10 of the molar value. Counter-ions that a name gives are not always drawn.

tested on: RSV ATCC VR-1540 (A2); assay: microbe, parasite or virus in culture; format: cell-based; conditions: human respiratory syncytial virus, HEp-2, 96 h; Hep2 cells, incubated for 4 days, CPE detected with XTT assay (absorbance 450 nm); read-out: EC50 (nmol/L) against RSV A2 strain

Question: `CCCc1cc2n3nc(cc3n1)[C@@H]1CCCCN1C(=O)c1cc(CN)ccc1OCC(=O)NCCN2C` [Example 101, (18aS)-2-(aminomethyl)-11-methyl-13-propyl-8,9,10,11,19,20,21,22-octahydro-18aH,24H-18,15-(metheno)pyrido[2,1-l]pyrimido[6,1-h][1,4,7,9,10,13]benzoxapentaazacyclohexadecine-7,24(6H)-dione] was tested. Which pEC50 did it give?
Answer: The pEC50 was 7.92.

Question: With `Cc1ccc2c(c1)C(=O)N1CCCC[C@H]1c1cc3nc(C4CC4)cc(n3n1)N(C)CCNC(=O)CO2` [Example 102, (18aS)-13-cyclopropyl-2,11-dimethyl-8,9,10,11,19,20,21,22-octahydro-18aH,24H-18,15-(metheno)pyrido[2,1-l]pyrimido[6,1-h][1,4,7,9,10,13]benzoxapentaazacyclohexadecine-7,24(6H)-dione] as the compound, how does the pEC50 read?
Answer: The pEC50 was 9.62.

Question: With `CN1CCNC(=O)COc2ccc(Cl)cc2C(=O)N2CCCCC2c2cc3nc(C4CC(O)C4)cc1n3n2` [Example 111, (18aS)-2-chloro-13-(cis-3-hydroxycyclobutyl)-11-methyl-8,9,10,11,19,20,21,22-octahydro-18aH,24H-18,15-(metheno)pyrido[2,1-l]pyrimido[6,1-h][1,4,7,9,10,13]benzoxapentaazacyclohexadecine-7,24(6H)-dione] as the compound, how does the pEC50 read?
Answer: The pEC50 was 9.35.

Question: How did the pEC50 turn out when `O=C1COc2ccc(F)cc2C(=O)N2CCCC[C@H]2c2cc3nc(C4CC4)cc(n3n2)CCCN1` [Example 121, (18aS)-13-cyclopropyl-2-fluoro-8,9,10,11,19,20,21,22-octahydro-18aH,24H-18,15-(metheno)pyrido[2,1-l]pyrimido[6,1-h][1,4,9,10,13]benzoxatemazacyclohexadecine-7,24(6H)-dione] was run?
Answer: The pEC50 was 7.96.

Question: With `CN1CCNCCOc2ccc(F)cc2C(=O)N2CCCC[C@H]2c2cc3nc(N4CCC4)cc1n3n2` [Example 133, (18aS)-13-(azetidin-1-yl)-2-fluoro-11-methyl-6,7,8,9,10,11,19,20,21,22-decahydro-18aH,24H-18,15-(metheno)pyrido[2,1-l]pyrimido[6,1-h][1,4,7,9,10,13]benzoxapentaazacyclohexadecin-24-one] as the compound, how does the pEC50 read?
Answer: The pEC50 was 8.87.

Question: How did the pEC50 turn out when `CC1COc2ccc(F)cc2C(=O)N2CCCCC2c2cc3nc(N4CC(N)C4)cc(n3n2)N(C)CCN1` [Example 145, (18aS)-13-(3-aminoazetidin-1-yl)-2-fluoro-7,11-dimethyl-6,7,8,9,10,11,19,20,21,22-decahydro-18aH,24H-18,15-(metheno)pyrido[2,1-l]pyrimido[6,1-h][1,4,7,9,10,13]benzoxapentaazacyclohexadecin-24-one] was run?
Answer: The pEC50 was 7.76.

Question: How did the pEC50 turn out when `CN1CCOc2ccc(Cl)cc2C(=O)N2CCCC[C@H]2c2cc3nc(N4CC(N)C4)cc(n3n2)N(C)CC1` [Example 151, (18aS)-13-(3-aminoazetidin-1-yl)-2-chloro-8,11-dimethyl-6,7,8,9,10,11,19,20,21,22-decahydro-18aH,24H-18,15-(metheno)pyrido[2,1-l]pyrimido[6,1-h][1,4,7,9,10,13]benzoxapentaazacyclohexadecin-24-one] was run?
Answer: Its pEC50 is 7.77.

Question: `CN1CCOc2ccc(Cl)cc2C(=O)N2CCCC[C@H]2c2cc3nc(NC4CNC4)cc(n3n2)N(C)CC1` [Example 161, (18aS)-13-[(azetidin-3-yl)amino]-2-chloro-8,11-dimethyl-6,7,8,9,10,11,19,20,21,22-decahydro-18aH,24H-18,15-(metheno)pyrido[2,1-l]pyrimido[6,1-h][1,4,7,9,10,13]benzoxapentaazacyclohexadecin-24-one] was tested. Which pEC50 did it give?
Answer: Its pEC50 is 7.71.

Question: How did the pEC50 turn out when `CN1CCOc2ccc(Cl)cc2C(=O)N2CCCC[C@H]2c2cc3nc(N4CC(F)C4)cc(n3n2)N(C)CC1` [Example 162, (18aS)-2-chloro-13-(3-fluoroazetidin-1-yl)-8,11-dimethyl-6,7,8,9,10,11,19,20,21,22-decahydro-18aH,24H-18,15-(metheno)pyrido[2,1-l]pyrimido[6,1-h][1,4,7,9,10,13]benzoxapentaazacyclohexadecin-24-one] was run?
Answer: Its pEC50 is 8.35.

Question: With `CN1CCOc2ccc(Cl)cc2C(=O)N2CCCC[C@H]2c2cc3nc(N4CC(CN)C4)cc(n3n2)N(C)CC1` [Example 163, (18aS)-13-[3-(aminomethyl)azetidin-1-yl]-2-chloro-8,11-dimethyl-6,7,8,9,10,11,19,20,21,22-decahydro-18aH,24H-18,15-(metheno)pyrido[2,1-l]pyrimido[6,1-h][1,4,7,9,10,13]benzoxapentaazacyclohexadecin-24-one] as the compound, how does the pEC50 read?
Answer: Its pEC50 is about 8.00.

Question: How did the pEC50 turn out when `Cc1ccc2c(c1)C(=O)N1CCCC[C@H]1c1cc3nc(N4CCC4)cc(n3n1)N(C)CCN(C)CCO2` [Example 173, (18aS)-13-(azetidin-1-yl)-2,8,11-trimethyl-6,7,8,9,10,11,19,20,21,22-decahydro-18aH,24H-18,15-(metheno)pyrido[2,1-l]pyrimido[6,1-h][1,4,7,9,10,13]benzoxapentaazacyclohexadecin-24-one] was run?
Answer: Its pEC50 is 8.89.

Question: `Cc1ccc2c(c1)C(=O)N1CCCC[C@H]1c1cc3nc(N4CCC4)cc(n3n1)N(C)CCN(S(N)(=O)=O)CCO2` [Example 178, (18aS)-13-(azetidin-1-yl)-2,11-dimethyl-24-oxo-6,7,10,11,19,20,21,22-octahydro-8aH,24H-18,15-(metheno)pyrido[2,1-l]pyrimido[6,1-h][1,4,7,9,10,13]benzoxapentaazacyclohexadecine-8(9H)-sulfonamide] was tested. Which pEC50 did it give?
Answer: Its pEC50 is 8.35.

Question: `Cc1ccc2c(c1)C(=O)N1CCCC[C@H]1c1cc3nc(N4CC(O)C4)cc(n3n1)N(C)CCN(S(C)(=O)=O)CCO2` [Example 179, (18aS)-13-(3-hydroxyazetidin-1-yl)-8-(methanesulfonyl)-2,11-dimethyl-6,7,8,9,10,11,19,20,21,22-decahydro-18aH,24H-18,15-(metheno)pyrido[2,1-l]pyrimido[6,1-h][1,4,7,9,10,13]benzoxapentaazacyclohexadecin-24-one] was tested. Which pEC50 did it give?
Answer: Its pEC50 is 8.13.

Question: `Cc1ccc2c(c1)C(=O)N1CCCC[C@H]1c1cc3nc(N4CC(N)C4)cc(n3n1)N(C)CCN(S(C)(=O)=O)CCO2` [Example 180, (18aS)-13-(3-aminoazetidin-1-yl)-8-(methanesulfonyl)-2,11-dimethyl-6,7,8,9,10,11,19,20,21,22-decahydro-18aH,24H-18,15-(metheno)pyrido[2,1-l]pyrimido[6,1-h][1,4,7,9,10,13]benzoxapentaazacyclohexadecin-24-one] was tested. Which pEC50 did it give?
Answer: Its pEC50 is 7.48.

Question: How did the pEC50 turn out when `Cc1ccc2c(c1)C(=O)N1CCCC[C@H]1c1cc3nc(NCCN)cc(n3n1)N(C)CCN(S(C)(=O)=O)CCO2` [Example 182, (18aS)-13-[(2-aminoethyl)amino]-8-(methanesulfonyl)-2,11-dimethyl-6,7,8,9,10,11,19,20,21,22-decahydro-18aH,24H-18,15-(metheno)pyrido[2,1-l]pyrimido[6,1-h][1,4,7,9,10,13]benzoxapentaazacyclohexadecin-24-one hydrochloride] was run?
Answer: Its pEC50 is 7.85.

Question: How did the pEC50 turn out when `CCC1c2cc3nc(N4CC[C@H](N)C4)cc(n3n2)N(C)CCN(S(C)(=O)=O)CCOc2ccc(C)cc2C(=O)N1C` (stereo partly drawn) [Example 195, (18S)-3-[(3S)-3-aminopyrrolidin-1-yl]-18-ethyl-8-(methanesulfonyl)-5,14,17-trimethyl-5,6,7,8,9,10,17,18-octahydro-16H-19,1-(metheno)pyrimido[6,1-h][1,4,7,9,11,13]benzoxapentaazacyclohexadecin-16-one] was run?
Answer: The pEC50 was 7.69.

Question: With `CN1CCNCCOc2ccc(F)cc2C(=O)N2CCCC[C@H]2c2cc3nc(N4CCC4)c(F)c1n3n2` [Example 198, (18aS)-13-(azetidin-1-yl)-2,12-difluoro-11-methyl-6,7,8,9,10,11,19,20,21,22-decahydro-18aH,24H-18,15-(metheno)pyrido[2,1-l]pyrimido[6,1-h][1,4,7,9,10,13]benzoxapentaazacyclohexadecin-24-one] as the compound, how does the pEC50 read?
Answer: Its pEC50 is 8.55.

Question: `CC[C@H]1c2cc3nc(NCC(C)(C)N)cc(n3n2)N(C)CCCCOc2ccc(C)cc2C(=O)N1C` [Example 208, (17S)-3-[(2-amino-2-methylpropyl)amino]-17-ethyl-5,13,16-trimethyl-6,7,8,9,16,17-hexahydro-5H,15H-18,1-(metheno)pyrimido[6,1-g][1,6,8,9,12]benzoxatetraazacyclopentadecin-15-one hydrochloride] was tested. Which pEC50 did it give?
Answer: Its pEC50 is 8.36.

Question: How did the pEC50 turn out when `CCC1c2cc3nc(N4CC[C@H](N)C4)cc(n3n2)N(C)CCCCOc2ccccc2C(=O)N1C` (stereo partly drawn) [Example 213, (17S)-3-[(3S)-3-aminopyrrolidin-1-yl]-17-ethyl-5,16-dimethyl-6,7,8,9,16,17-hexahydro-5H,15H-18,1-(metheno)pyrimido[6,1-g][1,6,8,9,12]benzoxatetraazacyclopentadecin-S5-one] was run?
Answer: The pEC50 was 8.11.

Question: With `CC[C@H]1c2cc3nc(N4CC[C@H](N)C4)cc(n3n2)N(C)CCCCN(C)c2ccc(C)cc2C(=O)N1C` [Example 218, (17S)-3-[(3S)-3-aminopyrrolidin-1-yl]-17-ethyl-5,10,13,16-tetramethyl-5,6,7,8,9,10,16,17-octahydro-15H-18,1-(metheno)pyrimido[6,1-g][1,6,8,9,12]benzopentaazacyclopentadecin-15-one] as the compound, how does the pEC50 read?
Answer: Its pEC50 is 8.01.

Question: With `CC[C@H]1c2cc3nc(OC)c(C)c(n3n2)N(C)CCCCNc2ccc(C)cc2C(=O)N1C` [Example 222a, (17S)-17-ethyl-3-methoxy-4,5,13,16-tetramethyl-5,6,7,8,9,10,16,17-octahydro-15H-18,1-(metheno)pyrimido[6,1-g][1,6,8,9,12]benzopentaazacyclopentadecin-15-one] as the compound, how does the pEC50 read?
Answer: Its pEC50 is 8.14.

Question: With `CC[C@H]1c2cc3nc(N4CC[C@H](N)C4)c(C)c(n3n2)N(C)CCCCNc2ccc(C)cc2C(=O)N1C` [Example 223, (17S)-3-[(3S)-3-aminopyrrolidin-1-yl]-17-ethyl-4,5,13,16-tetramethyl-5,6,7,8,9,10,16,17-octahydro-15H-18,1-(metheno)pyrimido[6,1-g][1,6,8,9,12]benzopentaazacyclopentadecin-15-one] as the compound, how does the pEC50 read?
Answer: The pEC50 was 8.87.

Question: How did the pEC50 turn out when `CC[C@H]1c2cc3nc(N4CC[C@H](N)C4)c(C)c(n3n2)N(C)CCCCCOc2ccccc2C(=O)N1C` [Example 233, (18S)-3-[(3S)-3-aminopyrrolidin-1-yl]-18-ethyl-4,5,17-trimethyl-5,6,7,8,9,10,17,18-octahydro-16H-19,1-(metheno)pyrimido[6,1-h][1,7,9,10,13]benzoxatetraazacyclohexadecin-16-one] was run?
Answer: Its pEC50 is 7.40.
